What was measured:
[1] = Cytotoxicity against mock-infected human MT4 cells assessed as reduction in cell viability after 5 days by MTT assay; format: toxicity, cell-based
[2] = tested on: Human immunodeficiency virus 1; test: Antiviral activity against HIV1 RES056 expressing reverse transcriptase K103N/Y181C double mutant infected in human MT4 cells assessed as protection against virus-induced cytopathic effect after 5 days by MTT assay; format: functional, cell-based; details: Human immunodeficiency virus 1, RES056, MT4, 120 h
[3] = Solubility of the compound; format: physicochemical
[4] = target: Human immunodeficiency virus type 1 reverse transcriptase (Human immunodeficiency virus 1, UniProt Q72547); test: Inhibition of recombinant wild type HIV1 p66/p51 using poly(rA) template/oligo(dT)16 primer after 40 mins by PicoGreen-based spectrofluorometric method
[5] = Selectivity index, ratio of CC50 for mock-infected human MT4 cells to EC50 for HIV1 3B expressing wild type reverse transcriptase; format: toxicity, cell-based; details: read-out: Ratio CC50/EC50
[6] = tested on: Human immunodeficiency virus 1; test: Antiviral activity against HIV1 3B expressing wild type reverse transcriptase infected in human MT4 cells assessed as protection against virus-induced cytopathic effect after 5 days by MTT assay; format: functional, cell-based; details: Human immunodeficiency virus 1, 3B, MT4, 120 h
[7] = Selectivity index, ratio of CC50 for mock-infected human MT4 cells to EC50 for HIV1 RES056 expressing reverse transcriptase K103N/Y181C double mutant; format: toxicity, cell-based; details: read-out: Ratio CC50/EC50

| SMILES | CC50 at 120 h [1] | EC50 [2] | solubility [3] | IC50 [4] | selectivity ratio [5] | EC50 [6] | selectivity ratio [7] |
| --- | --- | --- | --- | --- | --- | --- | --- |
| Cc1cc(C#N)cc(C)c1Oc1cc(Cl)nc(Nc2ccc(C#N)cc2)c1 | 57700 nM | > 57700 nM | > 3 µM | 773 nM | 54 | 1070 nM | < 1 |
| Cc1cc(C)c(Oc2cc(Cl)nc(Nc3ccc(C#N)cc3)c2)c(C)c1 | 10800 nM | > 10800 nM | > 14 µM | 248 nM | 26 | 410 nM | < 1 |
| COc1cc(Oc2c(C)cc(C#N)cc2C)cc(NC2CCN(Cc3ccccc3)CC2)n1 | 3500 nM | > 3500 nM | > 56 µM | 264 nM | 37 | 100 nM | < 1 |
| Cc1cc(C)c(Oc2cc(Cl)nc(NC3CCN(Cc4ccncc4)CC3)c2)c(C)c1 | 10400 nM | ≥ 10500 nM | > 57 µM | 82 nM | 247 | 42 nM | ≤ 1 |
| COc1cc(Oc2c(C)cc(C#N)cc2C)cc(NC2CCN(Cc3ccc(S(N)(=O)=O)cc3)CC2)n1 | 10000 nM | 6800 nM | > 48 µM | 132 nM | 1280 | 7.8 nM | 1 |
| COc1cc(Oc2c(C)cc(C#N)cc2C)cc(NC2CCN(Cc3ccc(S(C)(=O)=O)cc3)CC2)n1 | 1700 nM | > 1700 nM | > 48 µM | 175 nM | 133 | 12 nM | < 1 |
| Cc1cc(C#N)cc(C)c1Oc1cc(Cl)nc(NC2CCN(CC3CC3)CC2)c1 | 9600 nM |  | > 304 µM |  | ≤ 2 | ≥ 6400 nM |  |
| Cc1cc(C)c(Oc2cc(Cl)nc(NC3CCN(CC4CC4)CC3)c2)c(C)c1 | 5200 nM |  | > 62 µM |  | < 1 | > 5200 nM |  |
| Cc1cc(C)c(Oc2cc(Cl)nc(NC3CCN(Cc4ccc(S(C)(=O)=O)cc4)CC3)c2)c(C)c1 | 1200 nM | > 1100 nM | > 49 µM | 160 nM | 46 | 25 nM | < 1 |
| Cc1cc(C#N)cc(C)c1Oc1cc(Cl)nc(NC2CCN(CC3CCC3)CC2)c1 | 4200 nM | > 4200 nM | > 59 µM |  | < 1 | > 4200 nM | < 1 |
| COc1cc(Oc2c(C)cc(C#N)cc2C)cc(NC2CCN(CC3CC3)CC2)n1 | 8600 nM |  | > 307 µM |  | ≤ 1 | ≥ 9200 nM |  |
| Cc1cc(C)c(Oc2cc(Cl)nc(NC3CCN(Cc4ccc(S(N)(=O)=O)cc4)CC3)c2)c(C)c1 | 5400 nM | ≥ 9400 nM | > 49 µM | 159 nM | 161 | 33 nM | ≤ 1 |
| COc1cc(Oc2c(C)cc(C#N)cc2C)cc(NC2CCN(Cc3ccncc3)CC2)n1 | 20800 nM | 6200 nM | > 11 µM | 81 nM | 1570 | 13 nM | 3 |
| Cc1cc(C#N)cc(C)c1Oc1cc(Cl)nc(NC2CCN(Cc3ccncc3)CC2)c1 | 9700 nM | ≥ 6500 nM | > 56 µM | 40 nM | 1070 | 9.1 nM | ≤ 1 |
| Cc1cc(C#N)cc(C)c1Oc1cc(Cl)nc(NC2CCN(Cc3ccccc3)CC2)c1 | 4300 nM | > 4300 nM | > 56 µM | 168 nM | 88 | 49 nM | < 1 |
| Cc1cc(C)c(Oc2cc(Cl)nc(NC3CCN(Cc4ccc(C(N)=O)cc4)CC3)c2)c(C)c1 | 8200 nM | > 8200 nM | > 52 µM | 98 nM | 230 | 35 nM | < 1 |

| SMILES | CC50 at 120 h [1] | EC50 [2] | solubility [3] | IC50 [4] | selectivity ratio [5] | EC50 [6] | selectivity ratio [7] |
| --- | --- | --- | --- | --- | --- | --- | --- |
| Cc1cc(C#N)cc(C)c1Oc1cc(Cl)nc(NC2CCN(Cc3ccc(S(C)(=O)=O)cc3)CC2)c1 | 1500 nM | > 1500 nM | > 48 µM | 80 nM | 168 | 9.1 nM | < 1 |
| Cc1cc(C)c(Oc2cc(Cl)nc(NC3CCN(Cc4ccccc4)CC3)c2)c(C)c1 | 9700 nM | > 9700 nM | > 287 µM | 287 nM | 63 | 150 nM | < 1 |
| Cc1cc(C)c(Oc2cc(Nc3ccc(C#N)cc3)nc(OCCCN3CCOCC3)c2)c(C)c1 | 18800 nM | > 18800 nM | > 11 µM | 4060 nM | 18 | 1100 nM | < 1 |
| COc1cc(Oc2c(C)cc(C#N)cc2C)cc(NC2CCN(Cc3ccc(C(N)=O)cc3)CC2)n1 | 22900 nM | ≥ 6600 nM | > 257 µM | 113 nM | 1140 | 20 nM | ≤ 3 |
| Cc1cc(C#N)cc(C)c1Oc1cc(Cl)nc(NC2CCN(Cc3ccc(C(N)=O)cc3)CC2)c1 | 9800 nM | ≥ 9700 nM | > 51 µM | 90 nM | 1010 | 10 nM | ≤ 1 |
| Cc1cc(C)c(Oc2cc(Cl)nc(Nc3ccc(CN4CCOCC4)cc3)c2)c(C)c1 | 26000 nM | > 26000 nM | > 57 µM | 2620 nM | 11 | 2400 nM | < 1 |
| Cc1cc(C#N)cc(C)c1Oc1cc(Cl)nc(Nc2ccc(CN3CCOCC3)cc2)c1 | 7000 nM | > 6900 nM | > 56 µM | 1320 nM | 7 | 930 nM | < 1 |
| Cc1cc(C)c(Oc2cc(Cl)nc(NC3CCN(CC4CCC4)CC3)c2)c(C)c1 | 4600 nM |  | > 60 µM |  | < 1 | > 4600 nM |  |
| Cc1cc(C#N)cc(C)c1Oc1cc(Cl)nc(NC2CCN(Cc3ccc(S(N)(=O)=O)cc3)CC2)c1 | 7000 nM | > 7000 nM | > 48 µM | 57 nM | 946 | 7.4 nM | < 1 |
| CC(C)Nc1cccnc1N1CCN(C(=O)c2cc3cc(NS(C)(=O)=O)ccc3[nH]2)CC1 [DELAVIRDINE] | > 36200 nM | > 36200 nM |  |  | > 59 |  |  |
| O=C1Nc2ccc(Cl)cc2[C@@](C#CC2CC2)(C(F)(F)F)O1 [EFAVIRENZ] | > 6300 nM | 240 nM |  |  |  | 6.8 nM |  |
| Cc1cc(C#N)cc(C)c1Oc1nc(Nc2ccc(C#N)cc2)nc(N)c1Br [ETRAVIRINE] | > 4600 nM |  | < 1 µM |  |  | 9.5 nM |  |
| Nc1ccn([C@@H]2CS[C@H](CO)O2)c(=O)n1 [LAMIVUDINE] | > 87200 nM |  |  |  | > 28 | 3100 nM |  |
| Cc1ccnc2c1NC(=O)c1cccnc1N2C1CC1 [NEVIRAPINE] | > 15000 nM | ≥ 9800 nM |  |  |  |  |  |
| Cc1cn([C@H]2C[C@H](N=[N+]=[N-])[C@@H](CO)O2)c(=O)[nH]c1=O [ZIDOVUDINE] | > 93500 nM |  |  |  | > 13400 |  | > 15000 |

Source: ChEMBL document CHEMBL3860023, “Structural optimization of pyridine-type DAPY derivatives to exploit the tolerant regions of the NNRTI binding pocket” (Eur J Med Chem, 2016)
